Data: paper PMC5743427, “Inhibition of PIP4Kγ ameliorates the pathological effects of mutant huntingtin protein” (eLife, 2017)

Tests used:
PIP4K2C = target: T1, PIP4K2C (Homo sapiens, UniProt Q8TBX8); assay: KINOMEscan competition binding, single dose […]; settings: 10 µM
T1 sequence (Q8TBX8 2-421): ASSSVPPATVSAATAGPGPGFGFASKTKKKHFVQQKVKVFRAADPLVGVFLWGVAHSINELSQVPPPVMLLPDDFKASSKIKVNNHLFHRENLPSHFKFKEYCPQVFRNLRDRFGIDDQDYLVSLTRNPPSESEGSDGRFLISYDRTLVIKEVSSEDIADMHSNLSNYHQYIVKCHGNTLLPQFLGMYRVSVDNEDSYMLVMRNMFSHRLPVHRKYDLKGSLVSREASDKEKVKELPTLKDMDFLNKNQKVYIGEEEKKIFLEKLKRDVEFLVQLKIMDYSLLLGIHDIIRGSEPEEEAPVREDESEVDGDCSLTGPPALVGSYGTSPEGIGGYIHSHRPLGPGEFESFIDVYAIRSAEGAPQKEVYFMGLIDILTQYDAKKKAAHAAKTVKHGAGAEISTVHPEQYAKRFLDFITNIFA

PIP4Kalpha = target: T2, PIP4Kalpha (Homo sapiens, UniProt P48426); assay: […] lipid kinase assay (PI5P phosphorylation) with purified recombinant enzyme; weak inhibition; assay type: biochemical
T2 construct: gene PIP4K2A
T2 sequence (P48426 2-406): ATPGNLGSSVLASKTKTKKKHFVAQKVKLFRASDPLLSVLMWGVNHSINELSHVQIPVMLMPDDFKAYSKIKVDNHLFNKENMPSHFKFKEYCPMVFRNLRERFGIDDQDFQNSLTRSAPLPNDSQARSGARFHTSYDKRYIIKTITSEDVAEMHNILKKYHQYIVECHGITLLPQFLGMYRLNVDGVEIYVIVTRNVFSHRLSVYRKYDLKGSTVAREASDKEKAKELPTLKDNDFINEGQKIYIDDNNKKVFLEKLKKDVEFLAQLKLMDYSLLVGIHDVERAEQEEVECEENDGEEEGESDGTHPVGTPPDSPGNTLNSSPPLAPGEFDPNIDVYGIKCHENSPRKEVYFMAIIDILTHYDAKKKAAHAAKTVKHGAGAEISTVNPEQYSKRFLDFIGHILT

PIP4Kγ = target: T3, PIP4Kγ (Homo sapiens, UniProt Q8TBX8); assay: DiscoverX KINOMEscan competition binding Kd; also […] lipid kinase assay with purified full-length enzyme (IC50 […])
T3 construct: gene PIP4K2C; KINOMEscan construct for Kd; full length isolated PIP4Kγ for the enzyme assay
T3 sequence (Q8TBX8 2-421): T1 sequence (Q8TBX8 2-421)

ML168 (PIP4K2C) | IC50 (PIP4Kalpha) [µM] | Kd (PIP4Kγ) [µM] | SMILES
23 | – | – | Cn1nnnc1Sc1ncnc2scc(-c3ccccc3)c12 [ML168]
– | 50 to 100 | 0.354 | Cn1nnnc1Sc1ncnc2scc(-c3cccc(S(C)(=O)=O)c3)c12 [NCT-504, 4-((1-methyl-1H-tetrazol-5-yl)thio)−5-(3-(methylsulfonyl)phenyl)thieno[2,3-d]pyrimidine]
